# Data published in the supplement of paper PMC10307832.
# Legend:
# Test in all cases: relative viability (nuclei count vs DMSO), 5 days (fraction); higher = more cells survive
# Alpelisib + Luminespib = compound: Cc1nc(NC(=O)N2CCC[C@H]2C(N)=O)sc1-c1ccnc(C(C)(C)C(F)(F)F)c1 [Alpelisib] + CCNC(=O)c1noc(-c2cc(C(C)C)c(O)cc2O)c1-c1ccc(CN2CCOCC2)cc1 [Luminespib] (partner 0.01 µM)
# In short: (§1)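 Five library-drug doses in √10 steps were combined with a fixed anchor-drug dose, or a single drug was given alone, by pin tool to lung cancer cell lines in 1536-well plates the day after seeding. Nuclei were stained and counted after 5 days. Relative viability is the nuclei count in treated wells over that in vehicle wells, taken as the median of duplicate plates.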
# OSI-027 + Phenformin = compound: COc1cccc2cc(-c3nc([C@H]4CC[C@H](C(=O)O)CC4)n4ncnc(N)c34)[nH]c12 [OSI-027] + N=C(N)NC(=N)NCCc1ccccc1 [Phenformin] (partner 250 µM)
# In short: as §1
# Vemurafenib + Pictilisib = compound: CCCS(=O)(=O)Nc1ccc(F)c(C(=O)c2c[nH]c3ncc(-c4ccc(Cl)cc4)cc23)c1F [Vemurafenib] + CS(=O)(=O)N1CCN(Cc2cc3nc(-c4cccc5[nH]ncc45)nc(N4CCOCC4)c3s2)CC1 [Pictilisib] (partner 1 µM)
# In short: as §1
# OSI-027 + Navitoclax = compound: COc1cccc2cc(-c3nc([C@H]4CC[C@H](C(=O)O)CC4)n4ncnc(N)c34)[nH]c12 [OSI-027] + CC1(C)CCC(c2ccc(Cl)cc2)=C(CN2CCN(c3ccc(C(=O)NS(=O)(=O)c4ccc(N[C@H](CCN5CCOCC5)CSc5ccccc5)c(S(=O)(=O)C(F)(F)F)c4)cc3)CC2)C1 [Navitoclax] (partner 0.5 µM)
# In short: as §1
Cell Line,relative viability (Alpelisib + Luminespib; first compound 0.04 µM),relative viability (Alpelisib + Luminespib; first compound 0.1265 µM),relative viability (Alpelisib + Luminespib; first compound 0.4 µM),relative viability (Alpelisib + Luminespib; first compound 1.265 µM),relative viability (Alpelisib + Luminespib; first compound 4 µM),relative viability (OSI-027 + Phenformin; first compound 0.01 µM),relative viability (OSI-027 + Phenformin; first compound 0.03162 µM),relative viability (OSI-027 + Phenformin; first compound 0.1 µM),relative viability (OSI-027 + Phenformin; first compound 0.3162 µM),relative viability (OSI-027 + Phenformin; first compound 1 µM),relative viability (Vemurafenib + Pictilisib; first compound 0.03162 µM),relative viability (Vemurafenib + Pictilisib; first compound 0.1 µM),relative viability (Vemurafenib + Pictilisib; first compound 0.3162 µM),relative viability (Vemurafenib + Pictilisib; first compound 1 µM),relative viability (OSI-027 + Navitoclax; first compound 0.01 µM),relative viability (OSI-027 + Navitoclax; first compound 0.03162 µM),relative viability (OSI-027 + Navitoclax; first compound 0.1 µM),relative viability (OSI-027 + Navitoclax; first compound 0.3162 µM),relative viability (OSI-027 + Navitoclax; first compound 1 µM)
NCI-H2342,0.762,0.696,0.686,0.568,0.488,0.524,0.533,0.564,0.481,0.445,,,,,,,,,
SW 1573,0.175,0.215,0.285,0.198,0.115,0.406,0.286,0.343,0.312,0.191,0.475,0.511,0.585,0.52,0.889,1.05,0.902,0.757,0.504
NCI-H1792,0.338,0.5,0.576,0.326,0.323,0.126,0.168,0.228,0.204,0.173,0.272,0.249,0.259,0.234,0.417,0.458,0.556,0.572,0.43
LOU-NH91,0.239,0.266,0.311,0.247,0.27,0.699,0.679,0.504,0.548,0.411,0.535,0.459,,0.525,0.758,0.712,0.69,0.653,0.513
LC-2-ad,0.985,0.97,1.3,0.846,0.827,0.566,0.647,0.51,0.509,0.449,0.436,0.396,0.635,0.432,0.458,0.4,0.372,0.243,0.122
HOP-62,0.943,0.957,1.04,0.83,0.956,0.648,0.565,0.716,0.77,0.388,0.739,0.589,0.517,0.458,1.11,1.09,1.02,1.13,0.646
NCI-H650,0.752,0.744,0.985,0.559,0.664,0.424,0.487,0.394,0.417,0.285,0.818,0.834,0.534,0.771,,,,,
NCI-H1651,0.78,1.05,1,0.78,0.666,0.364,0.285,0.299,0.256,0.25,0.523,0.6,0.665,0.527,1.07,,0.935,0.836,0.341
CAL-12T,0.394,0.61,0.287,0.177,0.332,0.584,0.644,0.512,0.618,0.355,0.407,,,0.406,1.36,1.18,1.3,1.08,0.5
LK-2,0.139,0.159,0.196,0.191,0.176,0.437,0.344,0.328,0.155,0.275,0.618,0.49,0.661,0.425,0.774,0.781,0.69,0.372,0.238
EKVX,0.877,0.712,0.961,0.844,0.552,0.238,0.205,0.245,0.222,0.195,0.446,,0.501,0.451,0.954,0.873,1.01,0.807,0.44
EMC-BAC-2,1.24,1.03,1.16,0.932,0.707,0.513,0.543,0.466,0.385,0.263,0.46,0.474,0.454,0.544,1.17,1.05,1.12,1.06,0.436
NCI-H520,0.18,0.203,0.212,0.245,0.216,0.581,0.456,0.28,0.21,0.187,0.283,0.369,0.372,0.268,1.31,1.05,0.793,0.637,0.303
NCI-H322M,0.795,0.737,0.789,0.45,0.39,0.737,0.748,0.674,0.531,0.498,0.552,,0.719,0.572,1.24,1.15,1.17,0.783,1.27
COR-L 105,0.768,0.565,0.956,0.59,0.86,0.47,0.466,0.479,0.351,0.359,0.467,,0.406,0.368,0.899,0.782,0.886,0.636,0.429
NCI-H2170,0.561,0.875,1.12,0.575,0.373,0.429,0.401,0.431,0.436,0.275,0.305,0.157,0.254,0.293,0.651,0.565,0.471,0.535,0.221
NCI-H358,0.29,0.23,0.32,0.252,0.215,0.309,0.301,0.311,0.334,0.283,0.291,,0.417,0.299,,,,,
NCI-H1793,0.194,0.177,0.154,0.165,0.179,0.365,0.367,0.306,0.297,0.184,0.442,,0.477,0.379,0.399,0.387,0.407,0.318,0.223
